Like-named read-outs stand apart in the source and are kept apart here.
Assays:
Format in all cases: in vivo
Anthonomus grandis = assay: Action on Boll Weevil (Anthonomus grandis); details: for mortality at 800 ppm: Anthonomus grandis, 120 h, read-out: mortality in comparison with untreated controls
Method in brief: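 Diet in 96-well plates, seeded with 5-10 A. grandis eggs, received a spray of formulated compound (25% DMSO in water) at a range of concentrations, duplicated. Mortality of eggs and larvae was judged by eye after 5 days at about 25±1 °C, 75±5% relative humidity.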

Plutella xylostella [1] = assay: Action on Diamond Back Moth (Plutella xylostella), microtiter plates, insect diet, eggs; details: 800 ppm; egg and larval mortality; 5 days
Method in brief: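 Diet in 96-well plates with 15–25 P. xylostella eggs, sprayed with compound formulated in 75% water/25% DMSO at several concentrations, two replicates; mixtures combined in equal volumes. Incubated 5 days at 28±1 °C, 80±5% RH, then egg and larval mortality scored visually.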

Aedes aegypti = assay: whole plant or invertebrate; details: for mortality in comparison with untreated controls: 800 ppm, larvae, 2 days; for mortality at 800 ppm: Aedes aegypti, 48 h, read-out: mortality in comparison with untreated controls
Method in brief: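 Visual larval mortality was assessed 2 days after treatment (28±1 °C, 80±5% RH). Formulations of compounds or mixtures (75% water/25% DMSO) were applied by micro-atomizer onto diet of 5-15 newly hatched larvae per water-filled well, two replicates per concentration.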

Heliothis virescens = assay: Action on Tobacco Budworm (Heliothis virescens); details: for mortality at 800 ppm: Heliothis virescens, 120 h, read-out: mortality in comparison with untreated controls
Method in brief: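 Eggs (15-25 per well) on diet were held 5 days at about 28±1 °C, 80±5% RH, then egg and larval mortality was scored by eye. Beforehand the diet had been sprayed with compound dilutions formulated in water/DMSO 75:25 v/v, in two replicates.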

Dichromothrips corbetti = assay: Action on Orchid Thrips (Dichromothrips corbetti); details: for mortality at 300 ppm: Dichromothrips corbetti, read-out: mortality in comparison with untreated controls
Protocol: Example B2: Action on Orchid Thrips (Dichromothrips corbetti)
Dichromothrips corbetti adults used for bioassay were obtained from a colony maintained continuously under laboratory conditions. For testing purposes, the test compound is diluted in a 1:1 mixture of acetone: water (vol: vol), plus Kinetic® HV at a rate of 0.01% v/v.
Thrips potency of each compound was evaluated by using a floral-immersion technique. All petals of individual, intact orchid flowers were dipped into treatment solution and allowed to dryin Petri dishes. Treated petals were placed into individual re-sealable plastic along with about 20 adult thrips. All test arenas were held under continuous light and a temperature of about 28 °C for duration of the assay. After 3 days, the numbers of live thrips were counted on each petal. The percent mortality was recorded 72 hours after treatment.

Spodoptera eridania = assay: Action on Southern Armyworm (Spodoptera eridania), 2nd Instar Larvae; details: for mortality at 300 ppm: Spodoptera eridania, 96 h, read-out: mortality in comparison with untreated controls
Method in brief: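 2nd-instar Spodoptera eridania larvae (about 10–11 per pot) confined on sprayed, dried Lima bean plants (1st true leaf stage) in sealed bags. Spray solutions: acetone/water 1:1 plus 0.01% surfactant. Held 4 days near 25 °C, 20–40% RH; assessed for mortality and feeding reduction against untreated controls.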

Plutella xylostella [2] = assay: Action on Diamond Back Moth (Plutella xylostella), cabbage leaf dip, 3rd instar larvae; details: for mortality at 300 ppm: Plutella xylostella, foliar, read-out: mortality in comparison with untreated controls
Method in brief: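 Cabbage leaves dipped in compound solution (1:1 water:acetone, 0.01% v/v surfactant), air-dried, then infested with ten 3rd-instar larvae in petri dishes on moist filter paper. Mortality scored at 72 h after treatment; feeding damage rated on a 0–100% scale.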

[3] = 800 ppm, egg and larval mortality, 5 days
[4] = 300 ppm, adults, 72 hours after treatment
[5] = 300 ppm, 2nd instar larvae, 4 days after treatment
[6] = 300 ppm, 3rd instar larvae, 72 hours after treatment

| SMILES | mortality in comparison with untreated controls (Anthonomus grandis; [3]) | mortality in comparison with untreated controls (Plutella xylostella [1]) | mortality in comparison with untreated controls (Aedes aegypti) | mortality in comparison with untreated controls (Heliothis virescens; [3]) | mortality in comparison with untreated controls (Dichromothrips corbetti; [4]) | mortality in comparison with untreated controls (Spodoptera eridania; [5]) | mortality in comparison with untreated controls (Plutella xylostella [2]; [6]) | other results |
| --- | --- | --- | --- | --- | --- | --- | --- | --- |
| Cc1ccc(C(C)C)c(N2C(=O)CS/C2=N\C(=O)Nc2cc(F)c(-n3nc(C)c(NC(=O)c4ccc(OC(F)(F)F)cc4)c3C)cc2Cl)c1 [Example C-104] | at least 75% | at least 75% | at least 50% | at least 75% | at least 75% | at least 75% | – | – |
| Cc1ccc(C(C)C)c(N2C(=O)CSC2=NC(=O)Nc2ccc(-n3nc(C)c(NC(=O)c4ccc(OC(F)(F)F)cc4)c3C)c(Cl)c2Cl)c1 [Example C-123] | at least 75% | at least 75% | at least 50% | at least 75% | at least 75% | at least 75% | – | – |
| Cc1ccc(C(C)C)c(N2C(=O)CS/C2=N\C(=O)Nc2ccc(-n3cc(NC(=O)c4cc(F)c(F)c(F)c4)c(C)n3)cc2)c1 [Example C-23] | at least 75% | – | at least 50% | at least 75% | at least 75% | at least 75% | at least 75% | – |
| Cc1ccc(C(C)C)c(N2C(=O)CS/C2=N\C(=O)Nc2ccc(-n3nc(C)c(NC(=O)c4ccc(OC(F)(F)F)cc4)c3C)cc2Br)c1 [Example C-19] | at least 75% | – | at least 50% | at least 75% | at least 75% | at least 75% | at least 75% | – |
| Cc1nn(-c2ccc(NC(=O)/N=C3\SCC(=O)N3c3cc(N(C)C)ccc3C(C)C)cc2)c(C)c1NC(=O)c1ccc(OC(F)(F)F)cc1 [Example C-17] | at least 75% | – | at least 50% | at least 75% | at least 75% | at least 75% | at least 75% | – |
| Cc1ccc(C(C)C)c(N/C(=N/C(=O)Nc2ccc(-n3nc(C)c(NC(=O)c4ccc(OC(F)(F)F)cc4)c3C)cc2Cl)SCOC(=O)C(C)C)c1 [Example C-130] | at least 75% | at least 75% | at least 50% | at least 75% | at least 75% | – | – | – |
| Cc1ccc(C(C)C)c(N2C(=O)CS/C2=N\C(=O)Nc2ccc(-n3cc(NC(=O)c4ccc(OC(F)(F)F)cc4)c(C)n3)cc2C)c1 [Example C-1, N-[1-[4-[[(Z)-[3-(2-isopropyl-5-methyl-phenyl)-4-oxo-thiazolidin-2-ylidene]carbamoyl]amino]-3-methyl-phenyl]-3-methyl-pyrazol-4-yl]-4-(trifluoromethoxy)benzamide] | – | – | – | – | – | – | – | mortality at 800 ppm (Anthonomus grandis; [3]): ≥ 75%; mortality at 800 ppm (Aedes aegypti): ≥ 50%; mortality at 300 ppm (Plutella xylostella [2]; [6]): ≥ 75%; mortality at 800 ppm (Heliothis virescens; [3]): ≥ 75%; mortality at 300 ppm (Dichromothrips corbetti; [4]): ≥ 75%; mortality at 300 ppm (Spodoptera eridania; [5]): ≥ 75% |
| Cc1ccc(C(C)C)c(N2C(=O)CSC2=NC(=O)Nc2ccc(-n3cc(NC(=O)c4ccc(OC(F)(F)F)cc4)c(C)n3)cc2)c1 [Example C-9] | at least 75% | – | at least 50% | at least 75% | at least 75% | at least 75% | at least 75% | – |
| Cc1nn(-c2ccc(NC(=O)/N=C3\SCC(=O)N3c3cc(C4CC4)ccc3C(C)C)c(F)c2)cc1NC(=O)c1ccc(OC(F)(F)F)cc1 [Example C-7] | at least 75% | – | at least 50% | at least 75% | at least 75% | at least 75% | at least 75% | – |
| Cc1ccc(C(C)C)c(N2C(=O)CSC2=NC(=O)Nc2ccc(-n3nc(C)c(N(CC4CC4)C(=O)c4ccc(OC(F)(F)F)cc4)c3C)cc2Cl)c1 [Example C-46] | at least 75% | at least 75% | at least 50% | at least 75% | at least 75% | at least 75% | – | – |
| Cc1ccc(C(C)C)c(N2C(=O)CS/C2=N\C(=O)Nc2ccc(-n3nc(C)c(NC(=O)c4ccc(OC(F)(F)F)cc4)c3C)cc2Cl)c1 [Example C-4, N-[1-[3-chloro-4-[[(Z)-[3-(2-isopropyl-5-methyl-phenyl)-4-oxo-thiazolidin-2-ylidene]carbamoyl]amino]phenyl]-3,5-dimethyl-pyrazol-4-yl]-4-(trifluoromethoxy)benzamide] | – | – | – | – | – | – | – | mortality at 800 ppm (Anthonomus grandis): ≥ 75%; mortality at 800 ppm (Aedes aegypti): ≥ 50%; mortality at 300 ppm (Plutella xylostella [2]; 72 h): ≥ 75%; mortality at 800 ppm (Heliothis virescens): ≥ 75%; mortality at 300 ppm (Dichromothrips corbetti; 72 h): ≥ 75%; mortality at 300 ppm (Spodoptera eridania): ≥ 75% |
| Cc1ccc(C(F)(F)F)c(N2C(=O)CSC2=NC(=O)Nc2ccc(-n3cc(N(C)C(=O)c4ccc(OC(F)(F)F)cc4)c(C)n3)cc2)c1 [Example C-11] | at least 75% | – | at least 50% | at least 75% | at least 75% | at least 75% | at least 75% | – |
| CCN(C(=O)c1ccc(OC(F)(F)F)cc1)c1c(C)nn(-c2ccc(NC(=O)/N=C3\SCC(=O)N3c3cc(C)ccc3C(C)C)c(Cl)c2)c1C [Example C-97] | at least 75% | – | at least 50% | at least 75% | at least 75% | at least 75% | at least 75% | – |
